Assay results as given in PMC8880268, “Magnolol and Luteolin Inhibition of α-Glucosidase Activity: Kinetics and Type of Interaction Detected by In Vitro and In Silico Studies” (Pharmaceuticals, 2022).
Several values for one entry are separate records, joined by “and”; a condition that tells them apart may be missing. Identical values can stand only once. Entries after “also recorded” stand apart in the source; their conditions may differ. Like-named read-outs stand apart in the source and are kept apart here.

Assays:
α-glucosidase [1] = target: T1, α-glucosidase (Saccharomyces cerevisiae, UniProt P38158); experiment: Inactivation kinetics, time course of α-glucosidase activity; type: biochemical; details: enzyme 0.075 µM, pNPG 2 mM
T1 construct: purchased Merck KGaA, Darmstadt, Germany
T1 sequence (P38158 whole entry): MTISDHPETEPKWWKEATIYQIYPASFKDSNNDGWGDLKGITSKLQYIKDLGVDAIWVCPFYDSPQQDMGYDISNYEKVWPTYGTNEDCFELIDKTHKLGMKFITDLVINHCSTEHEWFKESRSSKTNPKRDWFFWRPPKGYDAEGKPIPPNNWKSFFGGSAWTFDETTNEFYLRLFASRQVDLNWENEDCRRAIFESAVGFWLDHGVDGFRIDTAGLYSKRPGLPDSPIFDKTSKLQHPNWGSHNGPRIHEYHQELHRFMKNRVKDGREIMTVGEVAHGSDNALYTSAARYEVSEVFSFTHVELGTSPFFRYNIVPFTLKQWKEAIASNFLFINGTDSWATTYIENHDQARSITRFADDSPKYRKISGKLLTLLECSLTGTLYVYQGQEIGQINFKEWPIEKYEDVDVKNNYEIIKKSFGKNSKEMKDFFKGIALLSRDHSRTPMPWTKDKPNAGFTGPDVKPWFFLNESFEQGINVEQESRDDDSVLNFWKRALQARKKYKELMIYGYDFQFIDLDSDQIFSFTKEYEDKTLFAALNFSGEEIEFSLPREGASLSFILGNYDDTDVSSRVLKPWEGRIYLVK
Procedure: The enzyme and substrate concentrations were 0.075 µM and 2 mM, respectively.

α-glucosidase [2] = target: T1, α-glucosidase; experiment: Fluorescence quenching analysis and thermodynamic parameters; type: binding; details: for Ksv (Stern–Volmer quenching constant): pH 6.8, α-glucosidase 0.35 µM; for Kd: read-out: Ka (binding constant) (converted)
Procedure: The interaction of inhibitors with α-glucosidase was studied using the fluorescence quenching method. […] Measurements were made in the emission range of 300–450 nm, with an excitation of 280 nm, after 10 min of stabilization. The fluorescent spectra of α-glucosidase (0.35 µM) and each inhibitor (0–1.0 µM) were carried out at three different temperatures (298, 304, and 310 K) and the bandwidths were set at 5 nm for both emission and excitation slits. For each sample, three fluorescence spectra were acquired, and the blank was subtracted. The compound quenching mechanism was assessed using the Stern–Volmer equation: F0 / F = 1 + Ksv[Q] = 1 + Kq^.τo[Q], where F0 and F are the fluorescence measure in absence and in presence of different concentrations of quencher, respectively; Ksv is the Stern–Volmer quenching constant; Kq is the coefficient of quencher rate coefficient; τ0 is the life time of the excited state; and [Q] is the concentration of the quencher.
Further elaboration of the equilibrium within the free and bound molecules can be achieved through the analysis of the fluorescence emission data utilizing the following equation: log (F0 − F) / F = log Ka + n log [Q], which obtains the binding constant (Ka) and the number of binding sites per protein (n) for the enzyme-inhibitor system.
Thermodynamic spontaneity is an important factor in the study of protein-ligand interaction. A system tends not only toward a lower energy state (enthalpy, ΔH), but also according to a state of disorder (entropy, ΔS). Thermodynamic parameters were obtained according to the Van ’t Hoff equation and the plot of “log Ka vs. 1/T”. The trade-off between enthalpy (ΔH°) and entropy (ΔS°) is used to obtain the standard free energy variation (ΔG°).

α-glucosidase [3] = details: cited from earlier work
α-glucosidase [4] = target: T1, α-glucosidase; experiment: Yeast α-glucosidase inhibitory assay (pNPG substrate, absorbance 405 nm); type: biochemical; details: for IC50: 2 mM pNPG
Procedure: α-Glucosidase inhibitory activity was determined according to a previous method. Briefly, 0.1 mM PBS (pH 6.8) was used to dissolve α-glucosidase and pNPG. In detail, 80 μL of PBS or 80 μL of test sample were added to 96-well plates. Successively, 20 μL of enzyme (0.025–0.125 µM) were added to each well. Magnolol (10–100 μM) and luteolin (5–50 μM) were prepared in DMSO (<1% v/v). […] Each sample was incubated with α-glucosidase for 10 min at 37 °C. The reaction started by adding 200 μL of pNPG (2 mM). The absorbance values were detected at 405 nm for 60 min, using a PerkinElmer Victor Nivo microplate spectrophotometer (Waltham, MA, USA). The α-glucosidase activity in the absence of inhibitors was defined as 100%. The half-maximal inhibitory concentration (IC50) was estimated by plot of relative enzymatic activity vs. inhibitor concentration.

α-glucosidase [5] = target: T1, α-glucosidase; experiment: Synchronous fluorescence spectra; details: pH 6.8, 298 K
Description: The application of this method allows the identification of conformational changes in proteins according to the spectroscopic behavior of the tyrosine and tryptophan residues. Synchronous fluorescence spectra were collected in the emission range of 260–320 nm. The difference between excitation and emission wavelength (Δλ) was established at 15 nm (tyrosine residues) or at 60 nm (tryptophan residues).

α-glucosidase [6] = target: T1, α-glucosidase; experiment: Kinetic analysis of yeast α-glucosidase inhibition (Michaelis–Menten and Lineweaver–Burk plots); type: biochemical; details: for Inhibitor Potency (relative to acarbose): from Ki values; for Vmax of α-glucosidase: converted using the Lambert–Beer relationship
Procedure: The type of enzyme inhibition exerted by inhibitors was evaluated from kinetic studies using different substrate concentrations (0.25–2.5 mM pNPG) applying Michaelis–Menten and Lineweaver–Burk plots. Inhibition constants (Ki) were determined by plots of the Y-intercept of the Lineweaver–Burk plot vs. inhibitor concentration.

α-glucosidase [7] = target: T1, α-glucosidase; set-up: method as in PMID 24333230; details: ref 17; cited from earlier work
[8] = 298–310 K, Van ’t Hoff equation

## O=c1cc(-c2ccc(O)c(O)c2)oc2cc(O)cc(O)c12 [Luteolin, 3’,4’,5,7-tetrahydroxyflavone]
α-glucosidase [1]; inhibitor 5 µM
  Inactivation rate constant K: 2.67 ± 0.08 10^−4 s^−1
α-glucosidase [1]; inhibitor 10 µM
  Inactivation rate constant K: 2.78 ± 0.08 10^−4 s^−1
α-glucosidase [1]; inhibitor 25 µM
  Inactivation rate constant K: 2.81 ± 0.03 10^−4 s^−1
α-glucosidase [1]; inhibitor 40 µM
  Inactivation rate constant K: 2.82 ± 0.04 10^−4 s^−1
α-glucosidase [1]; inhibitor 50 µM
  Inactivation rate constant K: 2.84 ± 0.01 10^−4 s^−1
α-glucosidase [2]; 298 K
  Kq (bimolecular quenching constant): 23.22 ± 0.159 10^13 M^−1 s^−1
  n (number of binding sites): 1.10
  Ksv (Stern–Volmer quenching constant): 23.22 ± 0.16 10^5 M^−1
  Kd: 0.402 µM
α-glucosidase [2]; 298 K, Van ’t Hoff equation
  ΔG° (free energy change): -0.547 kcal/mol
α-glucosidase [2]; [8]
  ΔH° (enthalpy change): -2.18 kcal/mol
  ∆S° (entropy change): −22.95 J mol^−1K^−1
α-glucosidase [2]; 304 K
  Kq (bimolecular quenching constant): 21.73 ± 0.141 10^13 M^−1 s^−1
  n (number of binding sites): 1.28
  Ksv (Stern–Volmer quenching constant): 21.73 ± 0.14 10^5 M^−1
  Kd: 0.417 µM
α-glucosidase [2]; 304 K, Van ’t Hoff equation
  ΔG° (free energy change): -0.514 kcal/mol
α-glucosidase [2]; 310 K
  Kq (bimolecular quenching constant): 18.68 ± 0.120 10^13 M^−1 s^−1
  n (number of binding sites): 1.34
  Ksv (Stern–Volmer quenching constant): 18.68 ± 0.12 10^5 M^−1
  Kd: 0.464 µM
α-glucosidase [2]; 310 K, Van ’t Hoff equation
  ΔG° (free energy change): -0.48 kcal/mol
α-glucosidase [2]; based on Ksv and Kq values
  fluorescence quenching mechanism: static quenching mechanism
α-glucosidase [2]; no temperature stated
  number of binding sites: approximately 1
α-glucosidase [3]; first of 'respectively', from literature IC50 values ref 18
  times more potent than acarbose: 13 times
α-glucosidase [3]; ref 4
  Ki: 29 µM and 38 µM
α-glucosidase [3]; ref 6
  IC50: 46 µM
α-glucosidase [3]; ref 17
  Ki: 140 µM
α-glucosidase [3]; ref 18
  IC50: 13.1 µM
α-glucosidase [3]; second of 'respectively', from literature IC50 values ref 6
  times more potent than acarbose: 17 times
α-glucosidase [4]; plots v vs. [α-glucosidase] at different inhibitor concentrations
  reversibility of inhibition: reversible inhibition
α-glucosidase [4]; α-glucosidase 0.025 × 10^−6 M, read-out: IC50
  IC50: 14 ± 10.5 µM
α-glucosidase [4]; α-glucosidase 0.05 × 10^−6 M, read-out: IC50
  IC50: 21.6 ± 11.7 µM
α-glucosidase [4]; α-glucosidase 0.05 × 10^−6 M, read-out: −Log IC50 (converted)
  IC50: 21.9 µM
α-glucosidase [4]; α-glucosidase 0.075 × 10^−6 M, read-out: IC50
  IC50: 32.3 ± 11.7 µM
α-glucosidase [4]; α-glucosidase 0.125 × 10^−6 M, read-out: IC50
  IC50: 59.4 ± 12.3 µM
α-glucosidase [5]; ∆λ = 15 nm (tyrosine residues)
  shift of synchronous fluorescence maximum: blue shift from 286 to 283
α-glucosidase [5]; ∆λ = 60 nm (tryptophan residues)
  shift of synchronous fluorescence maximum: no modification
α-glucosidase [6]; 0.075 µM α-glucosidase
  Ki’ (binding constant of the inhibitor to the substrate-enzyme complex): 35.4 µM
α-glucosidase [6]; 0.075 µM α-glucosidase, secondary plots of slope versus [I], read-out: Ki (binding constant of the inhibitor to the free enzyme)
  Ki: 34.2 µM
α-glucosidase [6]; Michaelis–Menten and Lineweaver–Burk plots
  type of inhibition: non-competitive inhibition; also recorded: non-competitive reversible inhibitor
α-glucosidase [6]
  Inhibitor Potency (relative to acarbose): 10.4
α-glucosidase [6]; listed as luteolin
  Inhibitor Potency (relative to acarbose): ≥ 10
α-glucosidase [6]; inhibitor 5 µM, 0.075 µM α-glucosidase
  Kcat of α-glucosidase: 2.95 ± 0.12 s⁻¹
α-glucosidase [6]; inhibitor 10 µM, 0.075 µM α-glucosidase
  Kcat of α-glucosidase: 2.65 ± 0.13 s⁻¹
α-glucosidase [6]; inhibitor 25 µM, 0.075 µM α-glucosidase
  Kcat of α-glucosidase: 2.02 ± 0.12 s⁻¹
α-glucosidase [6]; inhibitor 25 µM
  Vmax of α-glucosidase: 9.10 ± 0.50 µM/min
α-glucosidase [6]; inhibitor 40 µM, 0.075 µM α-glucosidase
  Kcat of α-glucosidase: 1.78 ± 0.12 s⁻¹
α-glucosidase [6]; inhibitor 40 µM
  Vmax of α-glucosidase: 8.00 ± 0.50 µM/min
α-glucosidase [6]; inhibitor 50 µM, 0.075 µM α-glucosidase
  Kcat of α-glucosidase: 1.41 ± 0.11 s⁻¹
α-glucosidase [6]; inhibitor 50 µM
  Vmax of α-glucosidase: 6.34 ± 0.60 µM/min
α-glucosidase [7]
  distance between inhibitor and α-glucosidase: 4.56 nm
